# Square brackets hold non-standard residues; d marks the D form. Ends that are not written are not given here. Peptide text beside a SMILES is read from it.
# Key:
# bacteria [1] = experiment: Activity in DMEM and RPMI media (lysis of bacteria); format: cell-based; set-up: key to Active in DMEM: YES: Active in DMEM; a blank means no activity; settings: for Active in DMEM: Table 2, tested in DMEM and RPMI; for antimicrobial / antibacterial activity: medium not stated
# Description: (§1) The CFU assay is the “gold standard” for evaluating antibiotics. Briefly, bacteria are grown overnight in rich medium, such as LB, and then diluted and grown in log phase for 2-4 hours. Cultures are set up as above, with the initial culture media being 10 mM phosphate buffer/0.03% LB; DMEM or RPMI; or DMEM or RPMI plus 10% serum (fetal calf, human, or mouse). After various periods of time, but generally 3 hours or less, aliquots are removed, diluted in LB at various dilutions, and plated on LB agar plates. Plates are incubated overnight at 37° C. and counted on an automatic colony counter.
# In the column “Active in DMEM”, a blank means no activity. MAP stands for multiple antigenic peptide, where a number of identical peptide chains are synthesized and joined to a common core (like a dendrimer).
# The peptides listed in Table 2 were tested in DMEM and RPMI, media that approximate blood and tissue conditions in vivo and those that were active under these conditions are listed in the last column (active in DMEM). […] No peptides that were all L-isomer peptides lysed bacteria in DMEM supplemented with serum.
# The hydrophobic moment is a measure of amphipathicity and indicates how well the hydrophobic residues fall on one side of the helix while the hydrophilic residues fall on the opposite side is shown in column 7. This was determined using the Membrane Explorer Program (http://blanco.biomol.uci.edu/mpex/). A high number indicates a high hydrophobic moment. Column 8 again (like Table 2) indicates which of these peptides is active in DMEM.
# Salmonella = format: cell-based, S. typhimurium; settings: pH 7.2
# How it was run: (§2)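 Bacterial suspensions (~5×10^6 CFU/ml) and serially diluted peptides, both in low-nutrient phosphate buffer (pH 7.2, 0.03% LB), are combined and held 3 h at 37 °C. Full LB is added for overnight growth. The MIC marks no growth, and IC50 marks 50% growth relative to medium.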
# B. cereus = format: cell-based; settings: pH 7.2
# How it was run: as §2
# E. coli DH5a = format: cell-based; settings: DH5a, pH 7.2
# How it was run: as §2
# bacteria [2] = experiment: Activity in serum containing media (10% FCS in DMEM or RPMI); format: cell-based; settings: 10% FCS in DMEM or RPMI
# Description: as §1
# Tests were conducted in low salt concentrations so that active peptide candidates could be identified more readily. It is important for in vivo applications that the present antimicrobial peptides be active in physiological salt concentrations (150 mM) as well as in the presence of other tissue components, such as blood plasma (serum). Serum may contain proteases that destroy peptides; the use of D-amino acids can improve protease resistance. See G12.21. […] Also active were G11.6, G11.26, G11.29, G11.30, G11.34, G11.35, G12.11, G12.19, G12.20 and G12.21. […]
Molecule,Active in DMEM (bacteria [1]),IC50 (Salmonella) [nM],Salmonella MIC (Salmonella) [µM],B. cereus MIC (B. cereus),IC50 (B. cereus) [nM],E. coli DH5a MIC (E. coli DH5a),IC50 (E. coli DH5a) [nM],antimicrobial / antibacterial activity (bacteria [1]),active in serum containing media (bacteria [2])
CSCC[C@@H]1NC(=O)[C@H](Cc2ccccc2)NC(=O)[C@H](CCCCN)NC(=O)[C@H](CCCCN)NC(=O)[C@H](CO)NC(=O)[C@H](C(C)C)NC(=O)[C@H](CCCCN)NC(=O)[C@H](CCCCN)NC(=O)[C@H](CC(N)=O)NC(=O)[C@H](CCCCN)NC(=O)[C@H](CCCCN)NC(=O)[C@H](CCSC)NC(=O)[C@H](Cc2ccccc2)NC(=O)[C@H](CCCCN)NC(=O)[C@H](CCCCN)NC(=O)[C@H](CO)NC(=O)[C@H](C(C)C)NC(=O)[C@H](CCCCN)NC(=O)[C@H](CCCCN)NC(=O)[C@H](CO)NC(=O)CNC(=O)[C@H](CCCCN)NC(=O)[C@H](CCCCN)NC1=O [G11.32 CYC],YES,210,0.35,0.35 µM,210,0.35 µM,200,,
"CC(C)C[C@@H](NC(=O)[C@@H](CCCNC(=N)N)NC(=O)[C@@H](CCCNC(=N)N)NC(=O)[C@H]1CCCN1C(=O)[C@@H](CCCNC(=N)N)NC(=O)[C@@H](CCCNC(=N)N)NC(=O)[C@@H](CO)NC(=O)[C@@H](CCCNC(=N)N)NC(=O)[C@@H](Cc1ccc(O)cc1)NC(=O)[C@@H](CCCNC(=N)N)NC(=O)[C@@H](CCCNC(=N)N)NC(=O)[C@H]1CCCN1C(=O)[C@H]1CCCN1C(=O)[C@H]1CCCN1C(=O)[C@@H](CCCNC(=N)N)NC(=O)[C@@H](CO)NC(=O)[C@H](NC(=O)[C@@H](CCCNC(=N)N)NC(=O)[C@H](N)CCCNC(=N)N)C(C)C)C(=O)N[C@@H](C(=O)O)C(C)C [Peptide G12.25, rrvsrppprryrsrrprrlv] (H-[dR][dR][dV][dS][dR][dP][dP][dP][dR][dR][dY][dR][dS][dR][dR][dP][dR][dR][dL][dV]-OH; N-terminus and C-terminus assumed)",YES,100,1.25,<.078 µM,< 78,0.15 µM,< 78,has lost much of its antibacterial activity,
"CSCC[C@@H](NC(=O)[C@H]1CCCN1C(=O)[C@H]1CCCN1C(=O)[C@@H](CCCNC(=N)N)NC(=O)[C@@H](CO)NC(=O)[C@H](NC(=O)[C@@H](CCCNC(=N)N)NC(=O)[C@H](N)CCCNC(=N)N)C(C)C)C(=O)N[C@H](CCCNC(=N)N)C(=O)N[C@H](CCCNC(=N)N)C(=O)N[C@H](Cc1ccc(O)cc1)C(=O)N[C@H](CCCNC(=N)N)C(=O)N[C@H](CO)C(=O)N[C@H](CCCNC(=N)N)C(=O)N[C@H](CCCNC(=N)N)C(=O)N1CCC[C@@H]1C(=O)N[C@H](CCCNC(=N)N)C(=O)N[C@H](CCCNC(=N)N)C(=O)N[C@H](CC(C)C)C(=O)N[C@@H](C(=O)O)C(C)C [Peptide G12.26, rrvsrppmrryrsrrprrlv] (H-[dR][dR][dV][dS][dR][dP][dP][dM][dR][dR][dY][dR][dS][dR][dR][dP][dR][dR][dL][dV]-OH; N-terminus and C-terminus assumed)",YES,100,0.3,0.35 µM,< 78,<.078 µM,< 78,loses some antibacterial activity compared to G12.21,
"CSCC[C@@H](NC(=O)[C@H]1CCCN1C(=O)[C@@H](CCCCN)NC(=O)[C@@H](CCCCN)NC(=O)[C@@H](CO)NC(=O)[C@H](NC(=O)[C@@H](CCCCN)NC(=O)[C@H](N)CCCCN)C(C)C)C(=O)N[C@H](CCCCN)C(=O)N[C@H](CCCCN)C(=O)N[C@H](Cc1ccc(O)cc1)C(=O)N[C@H](CCCCN)C(=O)N[C@H](CO)C(=O)N[C@H](CCCCN)C(=O)N[C@H](CCCCN)C(=O)N1CCC[C@@H]1C(=O)N[C@H](CCCCN)C(=O)N[C@H](CCCCN)C(=O)N[C@H](CC(C)C)C(=O)N[C@@H](C(=O)O)C(C)C [Peptide G12.28, kkvskkpmkkykskkpkklv] (H-[dK][dK][dV][dS][dK][dK][dP][dM][dK][dK][dY][dK][dS][dK][dK][dP][dK][dK][dL][dV]-OH; N-terminus and C-terminus assumed)",,,,,,,,inactive peptide,
"GRSRWRRVSRRFMRR [Peptide G14.11, GRSRWRRVSRRFMRR]",YES,440,0.65,0.7 µM,450,0.7 µM,450,,
QRSVSRAATRVSRTGRSRWRRVSRRFMRR [Peptide G8.9],YES,220,0.35,0.7 µM,450,0.7 µM,450,,
QRSVSRPPTRVSRTGRSRWRDVSRRFMRR [Peptide G8.12],YES,210,0.35,0.35 µM,210,0.35 µM,210,,
"RRVSRRFMRRD-NH2 [G11.30 CYC, RRVSRRFMRRD]",,7700,>10,>10 µM,7550,5.7 µM,3500,,active
RRVSRRFMRRSRWARKGSGQMVQQSSQQFQ [Peptide G11.41],,3250,5.6,1.38 µM,890,3.5 µM,960,,
RRVSRRFMRRYQSRVIQGLV [Peptide G12.6],,900,1.45,0.7 µM,420,1.45 µM,890,,
RRVSRRFMRRYQSRVPQGLV [Peptide G12.10],,850,1.4,1.4 µM,890,0.7 µM,450,,
RRVSRRFMRRYRSRRIRRLV [Peptide G12.8],,410,0.65,0.71 µM,450,0.7 µM,450,,
RRVSRRFMRRYRSRVIRGLV [Peptide G12.7],,220,0.35,0.35 µM,210,0.71 µM,250,,
"RRVVRRFMRR [Peptide G11.16, RRVVRRFMRR]",,3450,5.6,>10 µM,7700,1.4 µM,800,,
"RRVVRRLLRR [Peptide G11.19, RRVVRRLLRR]",,7690,>10,6.65 µM,3410,>10 µM,7450,,
"SDVAKKFMKKQSKVIKKLV [Peptide G12.23, SDVAKKFMKKQSKVIKKLV]",,> 10000,>10,>10 µM,7700,3 µM,1000,,
"SDVARRFMRRQSRVIRRLV [Peptide G12.22, SDVARRFMRRQSRVIRRLV]",,890,1.39,5.7 µM,3500,1.38 µM,870,,
"VHKRRVSRRFMRRLGH [Peptide G11.42, VHKRRVSRRFMRRLGH]",,1350,2.8,0.4 µM,110,0.35 µM,210,,
WRDVSRNFMRRGRSRGWRDVSRNFMRR [Peptide G11.36],,890,1.38,0.7 µM,410,0.7 µM,450,,

# Source: patent publication US7745390B2, “Antimicrobial peptides” (priority 2005, dated 2010)
